Earlier results on one compound are cited in patent US9205152B2, “Melt-blended protein composition” (Kimberly-Clark Worldwide, Inc., priority 2010, dated 2015).

For the series the following is noted: pH prior to incorporation into the composition.

Take `OCC(O)CO` [glycerol]: the pH entry is on record as “about 6”.
